Laboratory results published in PubChem BioAssay AID1419 (Emory University Molecular Libraries Screening Center, 2008).
Activity calls are given as the source filed them. How the calls were made is not given here.

Test: blockers of an Epstein-Barr virus protein-peptide interaction – biochemical, fluorescence polarization, dose response (AID 1419)
Settings: cell-free protein-peptide binding, 2 h; for fold change: measured here: P channel fold over control, at 54 µM

For `C=CCc1cccc2cc(C(=O)Nc3ccc(S(=O)(=O)Nc4nnc(CC)s4)cc3)c(=O)oc12`, the IC50 was > 54 µM (inactive) and the fold change was 1.08.
Work on `O=C1NC(=O)[C@@H]2C3c4ccccc4C=CN3[C@H](C(=O)c3cccs3)[C@H]12` (stereo partly drawn) yielded an IC50 of 4.84 µM and a fold change of 3.36.
For `CCn1c2ccccc2c2cc(NC(=O)c3coc(=O)c(Br)c3)ccc21`, the IC50 was < 0.42 µM and the fold change was 21.9.
With `O=C(CSc1nc(-c2ccc(F)cc2)nc2c1Cc1ccccc1O2)Nc1ccc(C(=O)O)cc1` the IC50 was 2.9 µM and the fold change was 1.11.
`CN1/C(=C\C=C\C2=[N+](C)c3ccc4ccccc4c3C2(C)C)C(C)(C)c2ccccc21` showed an IC50 of 3.78 µM and a fold change of 4.43.
In the case of `Cc1ccc(CNC(=O)c2ccc(-n3cccc3)cc2)cc1`, the IC50 is reported as > 54 µM (inactive) and the fold change is reported as 1.15.
In the case of `Cc1ccc(-n2cccc2/C=C2\C(=N)N3N=C(c4ccco4)SC3=NC2=O)cc1`, the IC50 is reported as > 54 µM (inactive) and the fold change is reported as 1.17.
With `Cc1cc[n+](-c2[nH]c(=O)sc2/C=N/N=C(\[O-])c2ccccc2)cc1C` the IC50 was < 0.42 µM and the fold change was 16.5.
With `Cc1ccc(C(=O)ONc2ccc(N=NC(=O)c3ccccc3O)cc2)cc1` the IC50 was 4.35 µM and the fold change was 0.99.
`O=c1[nH]c(C(Cl)Cl)nc2sc3c(c12)CCN(Cc1ccccc1)C3` showed an IC50 of 11.8 µM and a fold change of 2.
In the case of `Clc1ccc(OCc2nnc(-c3ccccc3Br)o2)c(Cl)c1`, the IC50 is reported as > 54 µM (inactive) and the fold change is reported as 1.
Molecule `COc1ccccc1N1C(=O)C2C(C(=O)c3ccccc3)=NN(c3ccc(C)cc3)C2C1=O` (stereo not drawn) has an IC50 of 3.66 µM and a fold change of 19.5.
Molecule `CN(C)CCCN1C(=O)c2cccc3c(Br)ccc(c23)C1=O` has an IC50 of 7.44 µM and a fold change of 3.2.
For `O=C(N=Nc1c(O)[nH]c2ccc([N+](=O)[O-])cc12)c1cc(-c2ccccc2Cl)nc2ccccc12`, the IC50 was 4.56 µM and the fold change was 1.03.
For `CC1=CC(=C(C#N)c2nc3ccccc3s2)C=C(C)N1CC1CCCO1` (stereo not drawn), the IC50 was 3.9 µM and the fold change was 9.43.
In the case of `O=C(CCN1C(=O)COc2ccccc21)NCc1ccco1`, the IC50 is reported as > 54 µM (inactive) and the fold change is reported as 1.02.
For `CCOc1cc(Br)c(Br)c(C=Nc2ccc(NC(C)=O)cc2)c1O`, the IC50 was 1.93 µM and the fold change was 8.05.
With `Nc1ccc2nc3c(=O)n(CCc4ccccc4)c(=O)[nH]c3nc2c1` the IC50 was < 0.42 µM and the fold change was 94.8.
For `COc1cc(N2CCCC2)c(OC)cc1/C=C(/C#N)c1ccc(F)cc1`, the IC50 was 9.59 µM and the fold change was 10.8.
With `CCCCn1nc(-c2ccccc2)c2nc3ccccc3nc21` the IC50 was 3.13 µM and the fold change was 22.6.
`COC(=O)c1cc2c(C)cc3ccc(C)cn3c-2c1C(=O)OC` showed an IC50 of 9.57 µM and a fold change of 4.48.
Molecule `N=c1oc2cc(O)ccc2cc1C(=O)Nc1ccccn1` has an IC50 of 6.67 µM and a fold change of 5.39.
`CCN(CC)c1ccc(/C=C(/C#N)c2nc3ccccc3[nH]2)c(OC(C)C)c1` gave an IC50 of 10.7 µM and a fold change of 14.3.
In the case of `O=c1oc2c3c4c(cc2c(C(F)(F)F)c1CCN1CCOCC1)CCCN4CCC3`, the IC50 is reported as < 0.42 µM and the fold change is reported as 35.9.
In the case of `CCN(CC)C(=O)CSc1nnc2nnc3cc(Cl)ccc3n12`, the IC50 is reported as 4.38 µM and the fold change is reported as 3.1.
`Cc1nc(NC(=O)c2ccccc2)sc1-c1csc(Nc2ccc(C(=O)O)cc2)n1` gave an IC50 of 2.31 µM and a fold change of 0.97.
With `O=c1[nH]c(=O)n(Cc2ccccc2Cl)c(O)c1/C=C1/C=CC=N1` the IC50 was > 54 µM (inactive) and the fold change was 1.75.
In the case of `O=C(c1ccccc1)c1ccc2c(c1)OCCCO2`, the IC50 is reported as > 54 µM (inactive) and the fold change is reported as 1.02.
With `O=C1CCNc2ccc(-c3ccccc3)cc21` the IC50 was < 0.42 µM and the fold change was 32.7.
`O=C1CCCC2=C1Sc1ccc(Cl)cc1N2` gave an IC50 of 5.79 µM and a fold change of 2.69.
For `Cc1ncc([N+](=O)[O-])n1Cc1cccc2ccccc12`, the IC50 was > 54 µM (inactive) and the fold change was 0.957.
For `O=C1CSC(=S)N1/N=C/c1ccc(O)c(O)c1O`, the IC50 was 2.61 µM and the fold change was 1.04.
Molecule `O=C(c1nc2n(n1)C(c1ccc(Cl)cc1)C=C(c1ccccc1)N2)N1CCOCC1` (stereo not drawn) has an IC50 of 2.27 µM and a fold change of 5.19.
With `CCCSCCCNC(=O)CC1Oc2ccccc2NC1=O` (stereo not drawn) the IC50 was > 54 µM (inactive) and the fold change was 1.09.
For `Fc1ccc(C2=CC(c3ccc(Br)o3)n3ncnc3N2)cc1` (stereo not drawn), the IC50 was 2.62 µM and the fold change was 3.2.
In the case of `O=C(O)c1ccccc1/C=N/NC(=O)c1cc(-c2ccco2)nc2ccccc12`, the IC50 is reported as 30.4 µM (inactive) and the fold change is reported as 1.03.
For `C=CCn1c(=O)/c(=C/c2cc(OC)c(OC)c(OC)c2)s/c1=C(/C#N)c1nc2ccccc2n1C`, the IC50 was 3.5 µM and the fold change was 15.9.
For `O=C(N/N=C/c1cc(Cl)cc([N+](=O)[O-])c1O)NC12CC3CC(CC(C3)C1)C2`, the IC50 was > 54 µM (inactive) and the fold change was 0.913.
In the case of `COC(=O)c1ccc(C)c(NC(=O)CCSc2ccc(Cl)cc2)c1`, the IC50 is reported as > 54 µM (inactive) and the fold change is reported as 1.15.
`COc1ccc(-c2nnc(-c3cc4c(ccc5ccccc54)oc3=O)o2)cc1` showed an IC50 of 12.9 µM and a fold change of 4.21.
`COCCOC(=O)c1sc(=S)n(CCOC)c1N` showed an IC50 of 3.85 µM and a fold change of 2.45.
With `N#Cc1cc(C(=O)c2ccccc2O)cn(-c2nccs2)c1=O` the IC50 was 5.3 µM and the fold change was 14.2.
For `COc1ccc(/C=C2\N=C(c3c(-c4ccccc4)noc3C)OC2=O)cc1OC`, the IC50 was 15.9 µM and the fold change was 3.56.
For `CCN1CCN(CC(=O)N2N=C(c3cccs3)CC2c2ccc(OC)c(OC)c2)C(=O)C1=O` (stereo not drawn), the IC50 was > 54 µM (inactive) and the fold change was 1.25.
`O=C(Nc1ccc2nc3ccccc3nc2c1)c1ccccc1` showed an IC50 of 15.5 µM and a fold change of 1.85.
With `CC(C)(C)c1ccc(OCC(=O)Nc2ccc3c4c(cccc24)C(=O)NC3=O)cc1` the IC50 was > 54 µM (inactive) and the fold change was 2.15.
With `O=C(NNC1=Nc2cccc3cccc1c23)c1ccc(Br)cc1` the IC50 was > 54 µM (inactive) and the fold change was 3.27.
With `Nc1c(NCCC2=CCCCC2)c(=O)[nH]c(=O)n1Cc1ccccc1` the IC50 was > 54 µM (inactive) and the fold change was 1.7.
With `CC(C)OC(=O)CC(=O)c1sc2nc3c(cc2c1N)CN(C)CC3` the IC50 was > 54 µM (inactive) and the fold change was 1.29.
`O=C(CSc1ccccn1)Nc1ccc2c(c1)C(=O)c1ccccc1C2=O` gave an IC50 of 19.4 µM and a fold change of 0.783.
In the case of `Oc1ccccc1C=NC1=NN(c2cccc(C(F)(F)F)c2)CC1`, the IC50 is reported as 3.11 µM and the fold change is reported as 19.9.
For `Cc1cc(-c2cccs2)c2c(N)c(C(=O)c3ccc4c(c3)OCO4)sc2n1`, the IC50 was 5.56 µM and the fold change was 6.29.
Work on `O=C1C2=C(SCCS2)C(=O)N1CCCO` yielded an IC50 of 2.57 µM and a fold change of 3.44.
`O=C1c2cccc3cc([N+](=O)[O-])cc(c23)C(=O)N1/N=C/c1ccc(O)cc1O` showed an IC50 of 10 µM and a fold change of 0.933.
Molecule `CCN(CC)c1ccc(/C=C(\C#N)C(=O)c2ccc(Br)cc2)cc1` has an IC50 of 2.69 µM and a fold change of 107.
`Cc1cc(C)c[n+](-c2nc3ccccc3nc2[N-]S(=O)(=O)c2ccc(Br)s2)c1` showed an IC50 of 7.26 µM and a fold change of 3.69.
Molecule `CC(C)C[C@H]1C(=O)N2CCCC2[C@]2(O)O[C@](NC(=O)[C@@H]3C=C4c5cccc6[nH]cc(c56)CC4N(C)C3)(C(C)C)C(=O)N12` (stereo partly drawn) has an IC50 of 8.52 µM and a fold change of 2.39.
In the case of `CCOc1cc(/C=C(\C#N)c2nc(-c3cccs3)c(NC(C)=O)s2)ccc1O`, the IC50 is reported as 3.62 µM and the fold change is reported as 5.84.
In the case of `CCOC(=O)c1ccc(N2C(=O)C3C(C2=O)C(C(=O)c2ccc(Cl)cc2)N2CCCC32)cc1` (stereo not drawn), the IC50 is reported as 2.54 µM and the fold change is reported as 5.32.
